From patent publication US9790253B2, “OSW-1 analogs and conjugates, and uses thereof” (priority 2011, dated 2017)

Tests used:
HCT-116 p21^+/+ = details: cited from earlier work
HCT-116 p21^−/− = details: cited from earlier work
ORP4L-myc-his = biological target: T1, ORP4L-myc-his (Homo sapiens, UniProt Q969R2); test: [3H]-25-hydroxycholesterol charcoal-dextran binding assay with ORP4L-myc-his; details: read-out: [^3H]-25-OHC K1 (nM) ORP4L-myc-his; competition with 20 nM [3H]-25-OHC, HEK-293T S100 lysate, 4° C., 16 h
T1 sequence (Q969R2 1-916): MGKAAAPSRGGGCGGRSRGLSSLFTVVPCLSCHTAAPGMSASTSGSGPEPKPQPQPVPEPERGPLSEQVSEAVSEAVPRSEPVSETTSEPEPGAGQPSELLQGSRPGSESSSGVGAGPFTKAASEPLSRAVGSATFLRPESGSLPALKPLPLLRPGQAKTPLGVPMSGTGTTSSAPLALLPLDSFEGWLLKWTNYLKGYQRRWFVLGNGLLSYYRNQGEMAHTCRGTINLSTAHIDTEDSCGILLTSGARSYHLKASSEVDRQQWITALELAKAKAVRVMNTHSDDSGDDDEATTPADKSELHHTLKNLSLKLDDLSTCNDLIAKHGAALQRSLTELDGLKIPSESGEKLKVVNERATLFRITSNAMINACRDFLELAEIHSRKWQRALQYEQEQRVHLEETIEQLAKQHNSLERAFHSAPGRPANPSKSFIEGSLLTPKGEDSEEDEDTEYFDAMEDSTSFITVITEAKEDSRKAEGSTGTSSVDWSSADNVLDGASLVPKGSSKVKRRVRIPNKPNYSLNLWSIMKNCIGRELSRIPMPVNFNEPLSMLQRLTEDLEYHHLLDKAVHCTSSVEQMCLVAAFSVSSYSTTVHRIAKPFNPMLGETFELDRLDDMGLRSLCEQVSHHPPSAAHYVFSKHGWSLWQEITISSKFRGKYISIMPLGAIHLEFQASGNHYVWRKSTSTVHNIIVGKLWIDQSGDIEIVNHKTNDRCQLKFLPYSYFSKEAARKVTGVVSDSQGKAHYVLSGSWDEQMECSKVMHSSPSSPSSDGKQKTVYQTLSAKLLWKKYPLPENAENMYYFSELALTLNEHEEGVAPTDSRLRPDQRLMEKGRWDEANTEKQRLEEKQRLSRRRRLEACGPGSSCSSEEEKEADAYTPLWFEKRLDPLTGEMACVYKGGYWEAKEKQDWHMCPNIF
Protocol: [^3H]-25-Hydroxycholesterol charcoal-dextran binding assay. […] These vectors were transfected into HEK-293T cells using Lipofectamine™2000 (Invitrogen), and 48 h after transfection, on-plate lysis of the transfected cells with the M-Per®/HALT™ with EDTA (ThermoScientific) reagent was performed, followed by ultracentrifugation at 100,000 g. The S100 lysate was diluted to 0.2 mg/mL, aliquoted and stored at −80° C. until use. The HEK-293T OSBP1-, ORP4L- or lacZ-myc-his lysate was incubated with [^3H]-25-hydroxycholesterol at 4° C. for 16 h in 96-well plates. After incubation, charcoal/dextran (C/D) was added to the wells for 30 min of shaking at RT, followed by centrifugation for 15 min at 1900 g to pellet the C/D. The C/D-cleared lysate was added to MicroScint™-20 (PerkinElmer) scintillation fluid, and the remaining protein-bound radiolabel was quantified using a TopCount™ scintillation counter. [^3H]-25-hydroxycholesterol binding curves and competition curves were repeated at least three times.
Lysates were thawed on ice, with brief periods of hand warming. Both the ^3H-25-OHC direct binding assays and the ^3H-25-OHC competition binding assays were set up similarly, with a large stock of binding assay lysate being prepared, then 73.5 μL of the binding assay mixture dispensed using a multi-channel pipettor into “V”-shaped 96-well plates. For the ^3H-25-OHC direct binding assay, 1.5 μL of ^3H-25-OHC and ^3H-25-OHC/40×25-OHC added to the wells in dilutions in 100% ethanol. For the ^3H-25-OHC competition binding assays, ^3H-25-OHC was added to the large stock of binding assay lysate to a final concentration of 20 nM. This ^3H-25-OHC-containing binding lysate was then dispensed using a multi-channel pipettor into the 96-well plates. Then, 1.5 μL of a serial dilution of the inhibitors in either 100% ethanol (25-OHC) or DMSO (the ORPphilins) was added to each well.
The binding lysate used in each well of the 96-well plate consisted of 60 μL of 0.2 mg/mL S100 lysate, 7.5 μL 20% PVA, and 5.6 μL 2M KCl. For ^3H-25-OHC binding curve experiments, 0.4 μL of buffer was then added (total volume per well: 73.5 μL). For the ^3H-25-OHC inhibition competition assays, 0.11 μL of 13.2 μM ^3H-25-OHC and 0.29 μL binding buffer was added for each well (total volume per well: 73.5 μL).
Binding assays were incubated, standing, for 16 h at 4° C. Then 30 μL of the rt C/D solution was multichannel pipetted into new “V’ shaped 96-well plates, and 60 μL of the binding lysate mixture was then added. The plates were briefly, lightly vortexed (˜10 sec), 10 and then rocked at 250 rpm for 30 min at rt. The plates were then centrifuged at 1900 g for 15 min at 4° C. in Microplate Carriers (Sorvall cat. #75006449S) in a Sorvall Legend RT centrifuge. Carefully so as to not disturb the C/D pellet, 30 μL of the supernatant was transferred to 170 μL of Microscint-20 in the OptiPlates. The plates were sealed with the TopSealA-Films, and vigorously vortexed (max speed, >1 min). ^3H-25-OHC detection in the wells was then performed using a TopCount Scintillation detector, counting each well for 2 min. Data was graphed and analyzed using GraphPad PrismS, using non-linear regression to determine KD and K1 values.
Binding experiments were performed at 4° C. for 16 h. Unbound sterol was removed using dextran-coated charcoal, and protein-bound sterol left in the supernatant was quantified by scintillation counting. Ki-values were determined as mean±s.d. from at least three independent experiments.

OSBP1-myc-his = biological target: T2, OSBP1-myc-his (Homo sapiens, UniProt P22059); test: [3H]-25-hydroxycholesterol charcoal-dextran binding assay with OSBP1-myc-his; details: competition with 20 nM [3H]-25-OHC, HEK-293T S100 lysate, 4° C., 16 h; read-out: [^3H]-25-OHC K1 (nM) OSBP1-myc-his
T2 construct: made in house; host or cells: HEK-293T (transient transfection; S100 lysate, not purified)
T2 sequence (P22059 1-807): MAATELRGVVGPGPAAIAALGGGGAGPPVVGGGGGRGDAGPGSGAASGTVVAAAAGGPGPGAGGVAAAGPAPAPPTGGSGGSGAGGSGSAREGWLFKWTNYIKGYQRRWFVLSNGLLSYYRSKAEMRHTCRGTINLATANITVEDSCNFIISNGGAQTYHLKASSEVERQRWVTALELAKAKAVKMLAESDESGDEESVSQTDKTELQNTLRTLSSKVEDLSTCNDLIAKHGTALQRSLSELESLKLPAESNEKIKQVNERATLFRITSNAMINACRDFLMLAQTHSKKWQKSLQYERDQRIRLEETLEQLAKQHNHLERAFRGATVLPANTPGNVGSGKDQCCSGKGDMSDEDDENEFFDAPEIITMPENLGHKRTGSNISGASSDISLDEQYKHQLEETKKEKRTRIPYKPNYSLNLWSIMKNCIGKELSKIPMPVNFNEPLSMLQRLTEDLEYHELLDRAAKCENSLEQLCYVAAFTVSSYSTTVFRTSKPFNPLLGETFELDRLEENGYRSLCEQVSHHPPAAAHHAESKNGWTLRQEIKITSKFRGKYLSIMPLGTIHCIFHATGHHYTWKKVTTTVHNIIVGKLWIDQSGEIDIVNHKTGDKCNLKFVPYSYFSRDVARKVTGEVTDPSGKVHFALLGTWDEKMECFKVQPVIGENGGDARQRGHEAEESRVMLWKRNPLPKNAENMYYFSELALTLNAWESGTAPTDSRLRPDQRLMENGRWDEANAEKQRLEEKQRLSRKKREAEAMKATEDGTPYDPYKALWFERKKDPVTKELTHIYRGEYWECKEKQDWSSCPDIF
Description: [^3H]-25-Hydroxycholesterol charcoal-dextran binding assay.
Methods are described above in the General Methods section.

[1] = test system: OSBP1 localization in HCT-116 cells; test: OSBP1 localization by immunofluorescence microscopy, HCT-116; type: cell-based, human; details: 4 h treatment
Protocol: (§1) Immunofluorescence microscopy. HCT-116 or A549 (adenocarcinomic human alveolar basal epithelial) cells were plated on coverslips in 6-well plates. After 72 h, the culture media was removed and replaced with media containing either compound or vehicle control. At the indicated time-points, the cells were fixed for 10 min using 3.7% formaldehyde in PBS. The coverslips were washed with PBS and permeabilized for 5 min with 0.5% Triton X-100 in PBS. Following PBS washing, the coverslips were blocked for 30 min using Image-iT™ FX (Invitrogen), washed with PBS, and then blocked for 30 min at room temperature (RT) with 1% BSA in PBS (BSA/PBS). The coverslips were then incubated overnight at 4° C. with a primary antibody solution in BSA/PBS. The coverslips were washed with BSA/PBS and incubated for 60 min at RT with Alexa Fluor®-conjugated secondary antibodies (Invitrogen) in BSA/PBS, with the final 30 min including incubation with Hoescht 33258. The coverslips were then washed sequentially with BSA/PBS, PBS, and water and finally mounted on microscope slides using Aqua Poly/Mount (Polysciences Inc.). Imaging data was acquired using Zeiss LSM 510 META scanning confocal microscope.
Although the function of OSBP1 is not yet fully elucidated, several cellular activities have been observed. For instance, OSBP1 translocates from cytoplasmic sites to the trans-Golgi network (TGN) upon addition of 25-OHC to cells. HCT-116 cells were treated with ORPphilins for short time periods (4 h) and the effects on OSBP1 localization monitored using immunofluorescence microscopy.
OSBP1 (green) and trans-Golgi protein P230 (red) were visualized in HCT-116 cells using indirect immunofluorescence microscopy. Cells were treated with compound for 4 h, fixed with 3.7% formaldehyde/PBS, washed, and permeabilized using 0.5% Triton X-100 in PBS. Proteins were labelled using specific primary antibodies against OSBP1 and P230 overnight at 4° C. After washing, cells were treated with Alexa Fluor 488 and Alexa Fluor 546 secondary antibodies for 1 h at RT.

CHO-K1 cells = test: Sphingomyelin biosynthesis, [3H]-serine pulse-labeling, CHO-K1; type: cell-based
Protocol: Sphingomyelin is biosynthesized from ceramide at the Golgi apparatus. Ceramide is primarily transported from the ER to the Golgi by ceramide transport protein (CERT), and the transport activity of CERT is both OSBP1- and VAP-A dependent. […] To determine whether the ORPphilins affect sphingomyelin synthesis, pulse-labeling with [^3H]-serine was performed in CHO-K1 and HCT-116 cells and the amount of tritium incorporated into sphingomyelin and other lipids then measured. Cells were treated with vehicle or compound for 6 h, and in the last 2 h the cells were pulsed with 10 μCi [^3H]-serine. Lipids were extracted and isolated by TLC, and label incorporation into sphingomyelin was measured by scintillation counting.

[2] = test system: OSBP1 localization in A549 cells; test: OSBP1 localization by immunofluorescence microscopy, A549; type: cell-based, human
Protocol: as §1
Perturbations of OSBP1 localization by 1, 2, and 4b in A549 cells were also observed.

[3] = test system: HeLa cells overexpressing OSBP1-myc-his or ORP4L-myc-his; test: Overexpression-viability assay, OSBP1-myc-his or ORP4L-myc-his; type: cell-based; details: 48 h, vs lacZ
Protocol: (§2) Overexpression-viability assays with wild-type and mutant OSBP/ORP4L constructs were carried out by transfecting HeLa cells with the appropriate plasmids using Lipofectamine™ LTX with PLUS™ reagent (Invitrogen) as instructed, and after 8 h of transfection, the cells were re-plated for the cell viability assay, performed as described above. Expression levels were evaluated by immunoblotting at the time of dosing.

HCT-116 cells = test: Growth inhibition with 25-OHC co-administration; type: cell-based, human; details: 10 μM 25-OHC for 1 and 2
Protocol: 25-OHC (11) is a high-affinity ligand of OSBP1 and ORP4L that is not cytotoxic at concentrations up to 10 μM. Example 1 established that the ORPphilins compete with 25-OHC for binding to OSBP1 and ORP4L (FIG. 2D,E). Therefore, if OSBP1 and ORP4L mediate the biological activities of these compounds, co-administration of sub-lethal doses of 25-OHC with the ORPphilins should inhibit binding of the ORPphilins to OSBP1 and ORP4L, thereby desensitizing cells to the cytotoxic effects of the ORPphilins.

[4] = test system: HCT-116 p21^−/− cells with OSBP1-targeting shRNA; test: OSBP1 shRNA knockdown/dose-shift experiment; type: cell-based, human; details: shOSBP1 vs shNT, 72 h
Description: FIG. 3A is a series of four bar graphs depicting knockdown/dose-shift experiment in HCT-116 p21^−/− cells stably transfected with either OSBP1-targeting shRNA (shOSBP1) or non-targeting shRNA (shNT). Bars represent s.d. of three or four individual experiments. * P=0.0002 (n=3); ** P=0.0006 (n=4); *** P=0.0003 (n=3) compared to shNT cells (two-tailed students t-test).
To ascertain if the antiproliferative activity of the ORPphilins depended on the levels of OSBP1 and ORP4L in cells, short hairpin RNA (shRNA) knockdown of OSBP1 expression was performed and then its effect on the growth inhibitory activity of 1, 2, and 4a measured. […] Similar results were obtained in HeLa cells. Overexpression of OSBP1-myc-his or ORP4L-myc-his (FIG. 3C) for 48 h desensitized HeLa cells to the antiproliferative activity of 1, 2, or 4a by ˜2-5-fold (FIG. 3D). However, taxol-induced growth inhibition was not affected by overexpression of OSBP1-myc-his or ORP4L-myc-his (FIG. 3D).

[5] = test system: HeLa cells overexpressing OSBP1(M446W)-myc-his; test: Overexpression-viability assay, OSBP1(M446W)-myc-his; type: cell-based; details: 48 h
Protocol: as §2
(§3) For additional support that OSBP1 and ORP4L are targets of the ORPphilins, dominant drug-resistant alleles of these proteins were sought. 15 OSBP1 residues inside and outside the region of the protein previously reported to mediate sterol binding were mutated (FIG. 4C). The growth inhibition induced by the ORPphilins was determined in HeLa cells overexpressing either wild-type or mutant OSBP1-myc-his proteins. Expression of wt OSBP1-myc-his and mutant OSBP1-myc-his were nearly equivalent as measured by western blot.
(§4) The same mutant caused a 3.9-fold reduction in the antiproliferative activity of OSW-1 (2) (FIG. 4E2) and a 2.7-fold reduction in the activity of schweinfurthin A (4a) (FIG. 4E3). […] The antiproliferative activity of taxol was unaffected by expression of these two OSBP1 mutant proteins (FIGS. 4E4, 4E8).

[6] = test system: HeLa cells overexpressing OSBP1(V582M); test: Overexpression-viability assay, OSBP1(V582M)-myc-his; type: cell-based; details: 48 h
Protocol: as §2, §3, §4

CC(/C=C/C=C(C)/C=C/C=C(\C)C(=O)O)=C1/C(=O)C[C@H]2[C@@]3(C)CCC(=O)C(C)(C)[C@@H]3CC[C@]12C [(−)-stellettin E, (−)-Stellettin E]
GI50 (HCT-116 p21^+/+): 4570 nM | GI50 (HCT-116 p21^−/−): 39 nM | times more cytotoxic to HCT-116 p21−/− than to parental HCT-116 (HCT-116 p21^−/−): 117 times

ritterazine B
Ki (ORP4L-myc-his): > 360 nM | Ki (OSBP1-myc-his): 28 ± 4 nM | OSBP1 localization [1]: effect was also observed

C/C=C(/C)C(=O)O[C@H]1C(C)=C2[C@H]([C@@H]1OC(=O)CCCCCCC)[C@@](C)(OC(C)=O)C[C@H](OC(=O)CCC)[C@@]1(O)[C@H]2OC(=O)[C@@]1(C)O [thapsigargin]
inhibition of SM biosynthesis (negative controls) (CHO-K1 cells): did not occur

COc1cc(/C=C/c2cc(O)c(C/C=C(\C)CCC=C(C)C)c(O)c2)cc2c1O[C@]1(C)C[C@@H](O)[C@@H](O)C(C)(C)[C@H]1C2 [Schweinfurthin B, schweinfurthin B]
OSBP1 localization [2]: perinuclear OSBP1-staining similar to 25-OHC

CC(=O)O[C@H]1C(=O)[C@@]2(C)[C@H]([C@H](OC(=O)c3ccccc3)[C@]3(O)C[C@H](OC(=O)[C@H](O)[C@@H](NC(=O)c4ccccc4)c4ccccc4)C(C)=C1C3(C)C)[C@]1(OC(C)=O)CO[C@@H]1C[C@@H]2O [taxol]
desensitization by overexpression of OSBP1-myc-his or ORP4L-myc-his [3]: not affected | effect of 25-OHC co-administration on the antiproliferative activity (HCT-116 cells): did not affect | sensitization by OSBP1 knockdown (GI50 shift) [4]: did not sensitize | inhibition of SM biosynthesis (negative controls) (CHO-K1 cells): did not occur | reduction in antiproliferative activity at the GI50 level, OSBP1(M446W) vs wt OSBP1 [5]: unaffected | reduction in antiproliferative activity, OSBP1(V582M) vs wt OSBP1 [6]: unaffected
